Results reported in patent US20230416712A1, “APPLICATION OF SUBSTANCE THAT REDUCES THE CONTENT OR ACTIVITY OF KAT7 IN PREVENTING SENESCENCE AND TREATING HEPATIC FIBROSIS” (INSTITUTE OF ZOOLOGY, CHINESE ACADEMY OF SCIENCES, priority 2020, published 2023).

Columns and labels:
[1] = tested on: WS mesenchymal precursor cells (WS hMPCs); experiment: Senescence of WS hMPCs treated with KAT7 inhibitor; assay type: cell-based, human; conditions: 50 nM; passages 2-3 after treatment; DMSO control; FIGS. 6C-6D
Experimental: Passage-4 WS mesenchymal precursor cells (WS hMPCs) in example 1 were used as test cells, and the cells were treated with a DMSO solution of 50 nM of WM-3835. The WM-3835 (with a structural formula as shown in a of FIGS. 6A-6I) was synthesized by entrusting WuXi AppTec, and a DMSO solvent was used as a control.
After the treatment, the cells were continuously passaged to passages 2-3. The cells were collected to detect a KAT7 protein knockdown efficiency (FIG. 6B), and SA-β-gal staining of cell senescence markers and detection of a cell proliferation molecular marker (Ki67) were performed.

[2] = tested on: Human primary hepatocytes (hHEPs); experiment: Senescence of human primary hepatocytes treated with KAT7 inhibitor; assay type: cell-based; conditions: 100 nM
Experimental: Human primary hepatocytes (hHEPs) were used as test cells (a product of Lonza, with an article No. of HUCPI), and the cells were treated with a DMSO solution of 100 nM of WM-3835, and DMSO was used as a control.

Question: With `Cc1cc(-c2ccccc2)cc(C(=O)NNS(=O)(=O)c2cccc(O)c2)c1F` [WM-3835] as the compound, how does the “senescence of WS hMPCs (SA-β-gal staining, Ki67)” value [1] read?
Answer: can delay the senescence of WS hMPCs

Question: And the “expressions of inflammatory genes and SASP-associated genes (RNA-seq)” value ([2]; FIGS. 6E-6I)?
Answer: down-regulated

Question: And the “expressions of metabolism-related genes (RNA-seq)” value ([2]; FIGS. 6E-6I)?
Answer: up-regulated

Question: And the “senescence of hepatocytes (P15, IL6 by RT-qPCR)” value ([2]; cultured 8 d, compared with DMSO group)?
Answer: significantly delay the senescence of hepatocytes
